Test results published in patent US5270302A, “Derivatives of tetrapeptides as CCK agonists” (priority 1991, dated 1993).
Like-named read-outs stand apart in the source and are kept apart here. *1 amine or outer side, *2 acyl side, *3 side chain or, on linkers, in order; H or OH if unused. Where a SMILES comes first, the peptide text is derived from it. Side-chain parts run from the residue outwards. [ ]: non-standard residue; d: D form. The star is where a group is joined. 1Nal = N[C@@H](Cc1cccc2ccccc12)C(=O)O; Desaminotyrosyl = O=C(CCc1ccc(O)cc1)*; X12 = O=C(C=Cc1ccc(C(F)(F)F)cc1)*; X10 = COc1ccc(C=CC(=O)*)c(OC)c1; X9 = CN(C)c1ccc(C=CC(=O)*)cc1; 3Abz = Nc1cccc(C(=O)O)c1; X17 = O=C(C=Cc1ccccc1O)*; 2Abz = Nc1ccccc1C(=O)O; X26 = Clc1cccc(Cl)c1N*; Boc = CC(C)(C)OC(=O)*; CO = O=C([*:1])[*:2]

Legend:
[1] = biological target: T1, Type-B CCK receptor (Cavia porcellus, UniProt H0VZC5); assay: Radioligand binding of [125I]BH-CCK-8 in guinea pig cerebral cortical membrane preparations
T1 construct: Cortical and pancreatic membranes were prepared as described; from tissue; host or cells: guinea pig cerebral cortex membranes
T1 sequence (H0VZC5 1-426): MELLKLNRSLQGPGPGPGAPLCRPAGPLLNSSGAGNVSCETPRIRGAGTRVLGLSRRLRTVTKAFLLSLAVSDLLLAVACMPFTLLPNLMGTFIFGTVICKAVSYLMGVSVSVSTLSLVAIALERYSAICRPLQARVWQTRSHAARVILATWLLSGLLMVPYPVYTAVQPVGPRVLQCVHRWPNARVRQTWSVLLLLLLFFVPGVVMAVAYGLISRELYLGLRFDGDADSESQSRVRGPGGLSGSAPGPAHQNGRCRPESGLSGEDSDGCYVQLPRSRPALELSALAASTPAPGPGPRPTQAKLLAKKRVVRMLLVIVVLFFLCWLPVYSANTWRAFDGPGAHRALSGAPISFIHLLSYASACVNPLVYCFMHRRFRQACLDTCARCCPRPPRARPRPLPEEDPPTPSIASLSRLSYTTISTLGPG
Excerpt: (§1) CCK-8 [Asp-Tyr(SO3 H)-Met-Gly-Trp-Met-Asp-PheNH2 ], bestatin and phosphoramidion were purchased from Peptide International (Louisville, Ky.). EGTA (ethylene glycol-bis-(β-aminoethyl) N,N,N',N'-tetraacetic acid), HEPES (4-(2-hydroxyethyl)-1-piperazine-enthanesulfonic acid) and BSA (bovine serum albumin) were purchased from Sigma Chemical Co. (St. Louis, Mo.). [^125 I]-Bolton-Hunteer (BH-CCK-8) (specific activity, 2200 Ci/mmol) was obtained from New England Nuclear (Boston, Mass.). Male guinea pigs, 250 to 325 g, were obtained from Scientific Small Animal Laboratory and Farm (Arlington Heights, Ill.). Collagenase, code CLSPA was purchased from Worthington (Frehold, N.J.).
(§2) Protocol For Radioligand Binding Experiments in Guinea Pig Cerebral Cortical and Pancreatic Membrane Preparations
(§3) Cortical and pancreatic membranes were prepared as described (Lin and Miller; J. Pharmacol. Exp. Ther. 1985, 232:775-780,). In brief, cortex and pancreas were removed and rinsed with ice-cold saline. Visible fat and connective tissues were removed from the pancreas. […] The homogenates were entrifuged for 10 minutes at 1075×g and pellets were discarded. The supernatants were saved and centrifuged at 38,730×g for 20 minutes. The resultant pellets were rehomogenized in 25 mL of 50 mM Tris-HCl buffer with a Teflon-glass homogenizer, 5 up and down strokes. The homogenates were centrifuged again at 38,730×g for 20 minutes. Pellets werre then resuspended in 20 mM HEPES, containing 1 mM EGTA, 118 mM NaCl, 4.7 mM KCl, 5 mM MgCl2, 100 μM bestatin, 3 μM phosphoramidon, pH 7.4 at 22° C. with a Teflon-glass homogenizer, 15 up and down strokes. Resuspension volume for the cortex was 15-18 mL per gram of original wet weight and 60 mL per gram for the pancreas.
(§4) [^125 I]Bolton-Hunter CCK-8 and test compounds were diluted with HEPES-EGTA-salt buffer (see above) containing 0.5% BSA. To 1 mL Skatron polystyrene tubes were added 25 μL of test compounds, 25 μL of [^125 I]BH-CCK-8 and 200 μL of membrane suspension. The final BSA concentration was 0.1%. The cortical tissues were incubated at 30° C. for 150 minutes and pancreatic tissues were incubated at 37° C. for 150 min. Incubations were terminated by filtration using Skatron Cell Harvester and SS32 microfiber filter mats. […] IC50 s were determined from the Hill analysis.

[2] = biological target: T2, Type-A CCK receptor (Cavia porcellus, UniProt Q63931); assay: Radioligand binding of [125I]BH-CCK-8 in guinea pig pancreatic membrane preparations; settings: guinea pig pancreatic membranes, 37° C., 150 min
T2 construct: Cortical and pancreatic membranes were prepared as described; from tissue; host or cells: guinea pig pancreas membranes
T2 sequence (Q63931 1-430): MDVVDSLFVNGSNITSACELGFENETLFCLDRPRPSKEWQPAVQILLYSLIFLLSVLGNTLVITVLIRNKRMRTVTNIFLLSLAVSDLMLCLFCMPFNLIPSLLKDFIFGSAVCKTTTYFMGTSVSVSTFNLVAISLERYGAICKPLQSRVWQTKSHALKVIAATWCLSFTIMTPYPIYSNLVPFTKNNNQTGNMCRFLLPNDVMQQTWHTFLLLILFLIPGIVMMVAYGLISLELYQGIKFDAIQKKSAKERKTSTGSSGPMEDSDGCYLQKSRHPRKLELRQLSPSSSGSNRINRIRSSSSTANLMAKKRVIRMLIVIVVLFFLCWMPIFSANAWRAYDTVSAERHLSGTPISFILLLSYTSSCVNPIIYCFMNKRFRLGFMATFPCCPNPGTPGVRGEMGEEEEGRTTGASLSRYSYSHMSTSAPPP
Excerpt: as §1, §2, §3, §4

[3] = IC50 (nM) 125I-BH-CCK-8 Type-B receptor, guinea pig cortical membranes, 30° C., 150 minutes
[4] = IC50 (nM) 125I-BH-CCK-8 Type-A receptor
[5] = guinea pig cortical membranes, 30° C., 150 minutes, read-out: IC50 (nM) 125I-BH-CCK-8 Type-B receptor
[6] = read-out: IC50 (nM) 125I-BH-CCK-8 Type-A receptor

Row | IC50 [1, 5] [nM] | IC50 [2, 6] [nM] | Compound | other results
1 | – | – | Cc1ccccc1NC(=O)NCCCC[C@H](NC(=O)C(C)(N)Cc1c[nH]c2ccccc12)C(=O)N[C@@H](CC(=O)O)C(=O)N(C)[C@@H](Cc1ccccc1)C(N)=O (single isomer, unassigned; isomer a) [Example 98, (α-Methyl)Trp-Lys(ε-N-(2-methylphenyl)aminocarbonyl)-Asp-(NMe)PheNH2 (Isomer A)] | IC50 [1, 3]: 3200 nM; IC50 [2, 4]: 4.9 nM
2 | – | – | Cc1ccccc1NC(=O)NCCCC[C@H](NC(=O)C(C)(N)Cc1c[nH]c2ccccc12)C(=O)N[C@@H](CC(=O)O)C(=O)N(C)[C@@H](Cc1ccccc1)C(N)=O (single isomer, unassigned; isomer b) [Example 99, (α-Methyl)Trp-Lys(ε-N-(2-methylphenyl)aminocarbonyl)-Asp-(NMe)PheNH2 (Isomer B)] | IC50 [1, 3]: > 10000 nM; IC50 [2, 4]: 67 nM
3 | 5300 | 200 | CC(C)(C)OC(=O)N[C@@H](Cc1c[nH]c2ccccc12)C(=O)N[C@@H](CCCCNC(=O)C=Cc1ccc(C(F)(F)F)cc1)C(=O)N[C@@H](CC(=O)O)C(=O)N[C@@H](Cc1ccccc1)C(N)=O [Example 8, t-BOC-Trp-Lys(ε-N-(4-trifluoromethylcinnamoyl))-Asp-PheNH2] (Boc-WK(X12)DF-NH2) | –
4 | 2100 | 120 | CN(C)c1ccc(C=CC(=O)NCCCC[C@H](NC(=O)[C@H](Cc2c[nH]c3ccccc23)NC(=O)OC(C)(C)C)C(=O)N[C@@H](CC(=O)O)C(=O)N[C@@H](Cc2ccccc2)C(N)=O)cc1 [Example 13, t-BOC-Trp-Lys(ε-N-(4-(dimethylamino)cinnamoyl))-Asp-PheNH2] (Boc-WK(X9)DF-NH2) | –
5 | 1200 | 33 | CC(C)(C)OC(=O)N[C@@H](Cc1c[nH]c2ccccc12)C(=O)N[C@@H](CCCCNC(=O)CCc1ccc(O)cc1)C(=O)N[C@@H](CC(=O)O)C(=O)N[C@@H](Cc1cccc2ccccc12)C(N)=O [Example 21, t-BOC-Trp-Lys(ε-N-(3-(4-hydroxyphenyl)propionyl))-Asp-α-NalNH2] (Boc-WK(Desaminotyrosyl)D[1Nal]-NH2) | –
6 | 200 | 81 | CC(C)(C)OC(=O)N[C@@H](Cc1c[nH]c2ccccc12)C(=O)N[C@@H](CCCCNC(=O)C=Cc1ccccc1O)C(=O)N[C@@H](CC(=O)O)C(=O)N[C@@H](Cc1ccccc1)C(N)=O [Example 22, t-BOC-Trp-Lys(ε-N-(2-hydroxycinnamoyl))-Asp-PheNH2] (Boc-WK(X17)DF-NH2) | –
7 | 3000 | 130 | COc1ccc(C=CC(=O)NCCCC[C@H](NC(=O)[C@H](Cc2c[nH]c3ccccc23)NC(=O)OC(C)(C)C)C(=O)N[C@@H](CC(=O)O)C(=O)N[C@@H](Cc2ccccc2)C(N)=O)c(OC)c1 [Example 23, t-BOC-Trp-Lys(ε-N-(2,4-dimethoxycinnamoyl))-Asp-PheNH2] (Boc-WK(X10)DF-NH2) | –
8 | – | – | COC(=O)c1ccccc1NC(=O)NCCCC[C@H](NC(=O)[C@H](Cc1c[nH]c2ccccc12)NC(=O)OC(C)(C)C)C(=O)N[C@@H](CC(=O)O)C(=O)N[C@@H](Cc1ccccc1)C(N)=O [Example 45, t-BOC-Trp-Lys(ε-N-(2-(methoxycarbonyl)phenyl)aminocarbonyl)-Asp-PheNH2] (Boc-WK([CO-2Abz-OMe])DF-NH2) | IC50 [1]: 3000 nM
9 | 1400 | – | COC(=O)c1cccc(NC(=O)NCCCC[C@H](NC(=O)[C@H](Cc2c[nH]c3ccccc23)NC(=O)OC(C)(C)C)C(=O)N[C@@H](CC(=O)O)C(=O)N[C@@H](Cc2ccccc2)C(N)=O)c1 [Example 46, t-BOC-Trp-Lys(ε-N-(3-(methoxycarbonyl)phenyl)aminocarbonyl)-Asp-PheNH2] (Boc-WK([CO-3Abz-OMe])DF-NH2) | –

Row | Compound | IC50 [1, 5] [nM] | IC50 [2, 6] [nM] | other results
10 | CC(C)(C)OC(=O)N[C@@H](Cc1c[nH]c2ccccc12)C(=O)N[C@@H](CCCCNC(=O)Nc1c(Cl)cccc1Cl)C(=O)N[C@@H](CC(=O)O)C(=O)N[C@@H](Cc1ccccc1)C(N)=O [Example 47, t-BOC-Trp-Lys(ε-N-(2,6-dichlorophenyl)aminocarbonyl)-Asp-PheNH2] (Boc-WK([CO-X26])DF-NH2) | 7000 | – | –
